Measurements from patent US20140314747A1, “PREDICTING RESPONSE TO EGFR INHIBITORS” (Genentech, Inc., priority 2013, published 2014).

How the values were obtained:
Assay type in all cases: cell-based, mouse
[1] = test system: mesenchyme free lung explants (lung epithelium in Matrigel); assay: mesenchyme-free lung explant culture, growth and branching
Method: (§1) Pancreas and individual lobes of the lungs were dissected from embryos harvested from timed pregnancy setups. Embryonic explants were cultured on 12 mm Transwell® with 0.4 μm polyester membrane insert (Corning, Tewsbury, Mass.) at the air-liquid interface in DME media with 10% fetal calf serum, glutamine and penicillin-streptomycin. For longer-term cultures (>3 days), media was changed daily.
For mesenchyme-free cultures, lungs were dissected and incubated in Collagenase/Dispase (1 mg/ml for each) for 10-15 minutes at room temperature. Epithelial tissue was removed by mechanical dissection, transferred to the Transwell® plates, and covered with 5-10 μl of 1:1 Matrigel:DME. After Matrigel was solidified, 400 μl media (DME/10% FCS/glutamine/pen-strep+200 ng/ml FGF7 (Life Technologies, Carlsbad, Calif.), FGF1 (Life Technologies), or EGF (Life Technologies)) was added to top and bottom wells. Erlotinib (Tarceva®, 1 μM hydrochloride salt; OSI Pharmaceuticals) or DMSO was added as indicated.
(§2) Embryonic explants were fixed in 4% paraformaldehyde, permeabilized in PBS with 2% BSA, 0.1% saponin or 0.1% Triton-X100. After washing, tissues were stained with anti-E-cadherin (Santa Cruz). Explants were mounted and imaged with a Leica SP5 laser confocal microscope. Images shown are representative of multiple independent experiments (n≧5) with littermate explants that were cultured, stained and imaged under substantially the same conditions and settings.
(§3) Homozygous germline mutations in LKB1 in mice are early embryonic lethal. […] This allele (Lkb1^MG) was “knocked-in” to the endogenous LKB1 locus to generate a genetically engineered mouse line that has been described in detail elsewhere (Lo et al., 2012, J. Cell. Biol., 199: 1117-1130). Lung and pancreas tissues from Lkb1^MG/MG embryos and wild-type littermates were dissected and grown in vitro for several days. Lung cultures were grown both as whole mount explants, and “mesenchyme-free” where most of the mesenchyme and other tissue types were stripped from the lung epithelium and the epithelium was cultured in Matrigel (Lu et al., 2005, J. Biol. Chem., 280: 4834-4841). During this time, the response of these tissues to growth factors was assessed.

[2] = test system: whole mount lung explants; assay: whole mount lung explant culture, growth; conditions: for size of terminal buds: addition of EGF
Method: as §1, §2, §3

[3] = test system: pancreatic explants; assay: pancreatic explant culture, cyst formation
Method: as §1, §2, §3

## FGF-1: fibroblast growth factor (FGF)-1 (Life Technologies)
[1]; both LKB1 wt/wt and LKB1 MG/MG, presence and absence of NMPP1
  growth of mesenchyme free lung cultures: robust growth

## C#Cc1cccc(Nc2ncnc3cc(OCCOC)c(OCCOC)cc23)c1 [erlotinib]
[1]; mesenchyme free cultures, erlotinib 1 μM, EGF + NMPP1
  effect on EGF-induced growth: inhibited
[2]; whole mount cultures, erlotinib 1 μM, EGF + NMPP1
  effect on EGF-induced growth: inhibited
[3]; erlotinib 1 μM, Lkb1 inhibition (NMPP1) with EGF
  effect on development of the cystic phenotype: inhibits the development of the cystic phenotype

## EGF: epidermal growth factor (Life Technologies) added to explant media (NSDSECPLSHDGYCLHDGVCMYIEALDKYACNCVVGYIGERCQYRDLKWWELR; UniProt P01133 971-1023, looked up)
[1]; Lkb1 MG/MG explants, EGF 100 ng/ml in the presence of NMPP1
  growth: substantial growth
[1]; Lkb1 wt/wt explants, EGF 100 ng/ml in the presence of NMPP1
  growth compared to no growth factor: modest increase in growth
[2]; LKB1 wt/wt lungs
  size of terminal buds: only a modest increase in size
[2]; Lkb1 MG/MG lungs
  size of terminal buds: substantial enlargement of the terminal buds
[3]; EGF 100 ng/ml, with Lkb1 inhibition
  development of the cystic phenotype: accelerates the development of the cystic phenotype
[3]; EGF, in the absence of Lkb1 inhibition
  cyst formation: does not by itself promote cysts
